# Data as given in ChEMBL document CHEMBL1124752, “Cyclobut-A and cyclobut-G: broad-spectrum antiviral agents with potential utility for the therapy of AIDS” (J Med Chem, 1990).
# Key:
# [1] = system: Human immunodeficiency virus 1; test: Tested for the determination of percentage protection at 100 uM against HIV-1 in ATH8 cells; format: functional, ATH-8
# [2] = system: Human immunodeficiency virus 1; test: Tested for the determination of percentage protection at 10 uM against HIV-1 in ATH8 cells; format: functional, ATH-8
# [3] = system: Human immunodeficiency virus 1; test: Tested for the determination of percentage protection at 1 uM against HIV-1 in ATH8 cells; format: functional, ATH-8
# [4] = system: Human immunodeficiency virus 1; test: Tested for the determination of percentage protection at 50 uM against HIV-1 in ATH8 cells; format: functional, ATH-8
# Human betaherpesvirus 5 [5] = test: In vitro antiviral activity tested against herpesvirus, HCMV, EC strain by plaque reduction assay in human foreskin fibroblasts; format: functional
# Human betaherpesvirus 5 [6] = test: In vitro antiviral activity tested against herpesvirus, HCMV, LA strain by plaque reduction assay in human foreskin fibroblasts; format: functional
# Human betaherpesvirus 5 [7] = test: In vitro antiviral activity tested against herpesvirus, HCMV, AD169 strain by plaque reduction assay in human foreskin fibroblasts; format: functional
# Human betaherpesvirus 5 [8] = test: In vitro antiviral activity tested against herpesvirus, HCMV, CH strain by plaque reduction assay in human foreskin fibroblasts; format: functional
# Human betaherpesvirus 5 [9] = test: In vitro antiviral activity tested against herpesvirus, HCMV, Davis strain by plaque reduction assay in human foreskin fibroblasts; format: functional
# [10] = system: Human immunodeficiency virus 1; test: Tested for the determination of percentage toxicity at 1 uM against HIV-1 in ATH8 cells; format: organism-based; details: human immunodeficiency virus 1, ath-8, 1 µM
# [11] = system: Human immunodeficiency virus 1; test: Tested for the determination of percentage toxicity at 50 uM against HIV-1 in ATH8 cells; format: organism-based; details: human immunodeficiency virus 1, ath-8, 50 µM
# Human alphaherpesvirus 1 [12] = test: Tested for the effective dose required to inhibit HSV-1 in infected mice; format: functional
# Human alphaherpesvirus 1 [13] = test: Tested for mean day to death of nonsurvivors against HSV-1 infection in mice at 4.7 mg/kg/day; format: functional
# Human alphaherpesvirus 1 [14] = test: In vitro antiviral activity against herpesvirus, HSV-1, E-377 strain by plaque reduction assay in human foreskin fibroblasts; format: functional
# [15] = system: Human immunodeficiency virus 1; test: Tested for the determination of percentage toxicity at 10 uM against HIV-1 in ATH8 cells; format: organism-based; details: human immunodeficiency virus 1, ath-8, 10 µM
# Human alphaherpesvirus 1 [16] = test: Number of survivors per number of HSV-1 infected mice treated with 4.7 mg/kg/day; 6/10; format: functional
# Human alphaherpesvirus 2 [17] = test: Number of survivors per number of HSV-2 infected mice treated with 31.2 mg/kg/day; 9/10; format: functional
# Human alphaherpesvirus 2 [18] = test: Tested for mean day to death of nonsurvivors against HSV-2 encephalitis in mice at 31.2 mg/kg/day; format: functional
# Human alphaherpesvirus 2 [19] = test: Tested for mean day to death of nonsurvivors against HSV-2 encephalitis in mice at 7.8 mg/kg/day; format: functional
# Human alphaherpesvirus 2 [20] = test: Number of survivors per number of HSV-2 infected mice treated with 125 mg/kg/day; 10/10; format: functional
# Human alphaherpesvirus 2 [21] = test: Number of survivors per number of HSV-2 infected mice treated with 7.8 mg/kg/day; 5/10; format: functional
# Human alphaherpesvirus 2 [22] = test: Tested for the effective dose required to inhibit HSV-2 encephalitis in infected mice; format: functional
# Human alphaherpesvirus 2 [23] = test: In vitro antiviral activity tested against herpesvirus, HSV-2, HEET strain by plaque reduction assay in human foreskin fibroblasts; format: functional
# Human alphaherpesvirus 2 [24] = test: In vitro antiviral activity tested against herpesvirus, HSV-2, JEN strain by plaque reduction assay in human foreskin fibroblasts; format: functional
# Human alphaherpesvirus 2 [25] = test: In vitro activity tested against herpesvirus, HSV-2, MS strain by plaque reduction assay in human foreskin fibroblasts; format: functional
# [26] = system: Human immunodeficiency virus 1; test: Tested for the determination of percentage toxicity at 100 uM against HIV-1 in ATH8 cells; format: organism-based; details: human immunodeficiency virus 1, ath-8, 100 µM
# Human alphaherpesvirus 1 [27] = test: Number of survivors per number of HSV-1 infected mice treated with 18.7 mg/kg/day; 10/10; format: functional
# Human alphaherpesvirus 1 [28] = test: Number of survivors per number of HSV-1 infected mice treated with 75 mg/kg/day; 10/10; format: functional
# Human alphaherpesvirus 2 [29] = test: In vitro antiviral activity tested against herpesvirus, HSV-2, X-79 strain by plaque reduction assay in human foreskin fibroblasts; format: functional
# Murid betaherpesvirus 1 [30] = test: Tested for the effective dose required to inhibit systemic MCMV in infected mice; format: functional
# Murid betaherpesvirus 1 [31] = test: Number of survivors per number of systemic MCMV infected mice treated with 33.4 mg/kg/day; 14/15; format: functional
# Murid betaherpesvirus 1 [32] = test: In vitro antiviral activity tested against herpesvirus, MCMV, Smith strain by plaque reduction assay in mouse embryo fibroblasts; format: functional
# Murid betaherpesvirus 1 [33] = test: Tested for mean day to death of nonsurvivors against systemic MCMV infection in mice at 11.2 mg/kg/day; format: functional
# Murid betaherpesvirus 1 [34] = test: Tested for mean day to death of nonsurvivors against systemic MCMV infection in mice at 3.8 mg/kg/day; format: functional
# Murid betaherpesvirus 1 [35] = test: Tested for mean day to death of nonsurvivors against systemic MCMV infection in mice at 33.4 mg/kg/day; format: functional
# Murid betaherpesvirus 1 [36] = test: Number of survivors per number of systemic MCMV infected mice treated with 100 mg/kg/day; 15/15; format: functional
# Murid betaherpesvirus 1 [37] = test: Number of survivors per number of systemic MCMV infected mice treated with 11.2 mg/kg/day; 14/15; format: functional
# Murid betaherpesvirus 1 [38] = test: Number of survivors per number of systemic MCMV infected mice treated with 3.8 mg/kg/day; 4/15; format: functional
# Human alphaherpesvirus 3 [39] = test: In vitro antiviral activity tested against herpesvirus, VZV, Ellen strain by plaque reduction assay in human foreskin fibroblasts; format: functional
# Human alphaherpesvirus 3 [40] = test: In vitro antiviral activity tested against herpesvirus, VZV, OKA strain by plaque reduction assay in human foreskin fibroblasts; format: functional
# Homo sapiens = species: Homo sapiens; test: The drug concentration was determined to reduce proliferation of human foreskin fibroblasts to 50% of untreated controls in proliferation assay; format: functional; details: read-out: ID50 (the source's name)
# [41] = read-out: ED50 (the source's name)
# [42] = read-out: ID50 (the source's name)
smiles,measurement,setting,value
Nc1ncnc2c1ncn2[C@@H]1C[C@H](CO)[C@H]1CO,Protection,[1],52%
same,Protection,[2],63%
same,Protection,[3],47%
same,Protection,[4],48%
same,EC50,Human betaherpesvirus 5 [5]; [41],2.2 µg/mL
same,IC50,Human betaherpesvirus 5 [5]; [42],> 100 µg/mL
same,EC50,Human betaherpesvirus 5 [6]; [41],1 µg/mL
same,IC50,Human betaherpesvirus 5 [6]; [42],> 100 µg/mL
same,EC50,Human betaherpesvirus 5 [7]; [41],3.7 µg/mL
same,IC50,Human betaherpesvirus 5 [7]; [42],> 100 µg/mL
same,EC50,Human betaherpesvirus 5 [8]; [41],0.9 µg/mL
same,IC50,Human betaherpesvirus 5 [8]; [42],> 100 µg/mL
same,EC50,Human betaherpesvirus 5 [9]; [41],0.9 µg/mL
same,IC50,Human betaherpesvirus 5 [9]; [42],> 100 µg/mL
same,Cytotoxity,[10],11%
same,Cytotoxity,[11],42%
same,ED50,Human alphaherpesvirus 1 [12],< 4.7 mg/kg/day
same,MDD,Human alphaherpesvirus 1 [13],7.5
same,EC50,Human alphaherpesvirus 1 [14]; [41],1 µg/mL
same,IC50,Human alphaherpesvirus 1 [14]; [42],> 100 µg/mL
same,Cytotoxity,[15],32%
same,Survivors / treated,Human alphaherpesvirus 1 [16],6
same,Survivors / treated,Human alphaherpesvirus 2 [17],9
same,MDD,Human alphaherpesvirus 2 [18],10
same,MDD,Human alphaherpesvirus 2 [19],10.8
same,Survivors / treated,Human alphaherpesvirus 2 [20],10
same,Survivors / treated,Human alphaherpesvirus 2 [21],5
same,ED50,Human alphaherpesvirus 2 [22],9.7 mg/kg/day
same,EC50,Human alphaherpesvirus 2 [23]; [41],2.2 µg/mL
same,IC50,Human alphaherpesvirus 2 [23]; [42],> 100 µg/mL
same,EC50,Human alphaherpesvirus 2 [24]; [41],2.3 µg/mL
same,IC50,Human alphaherpesvirus 2 [24]; [42],> 100 µg/mL
same,EC50,Human alphaherpesvirus 2 [25]; [41],1.6 µg/mL
same,IC50,Human alphaherpesvirus 2 [25]; [42],> 100 µg/mL
same,Cytotoxity,[26],44%
same,Survivors / treated,Human alphaherpesvirus 1 [27],10
same,Survivors / treated,Human alphaherpesvirus 1 [28],10
same,EC50,Human alphaherpesvirus 2 [29]; [41],1.8 µg/mL
same,IC50,Human alphaherpesvirus 2 [29]; [42],> 100 µg/mL
same,ED50,Murid betaherpesvirus 1 [30],2.7 mg/kg/day
same,Survivors / treated,Murid betaherpesvirus 1 [31],14
same,EC50,Murid betaherpesvirus 1 [32]; [41],0.05 µg/mL
same,IC50,Murid betaherpesvirus 1 [32]; [42],> 100 µg/mL
same,MDD,Murid betaherpesvirus 1 [33],6
same,MDD,Murid betaherpesvirus 1 [34],5.3
same,MDD,Murid betaherpesvirus 1 [35],5
same,Survivors / treated,Murid betaherpesvirus 1 [36],15
same,Survivors / treated,Murid betaherpesvirus 1 [37],14
same,Survivors / treated,Murid betaherpesvirus 1 [38],4
same,EC50,Human alphaherpesvirus 3 [39]; [41],2.1 µg/mL
same,IC50,Human alphaherpesvirus 3 [39]; [42],> 100 µg/mL
same,EC50,Human alphaherpesvirus 3 [40]; [41],2 µg/mL
same,IC50,Human alphaherpesvirus 3 [40]; [42],> 100 µg/mL
same,IC50,Homo sapiens,7.7 µg/mL
